# US11673866B2, “Estrogen receptor beta ligands for the prevention and treatment of multiple sclerosis (MS) and other demyelinating, inflammatory and neurodegenerative diseases” (The Board of Trustees of the University of Illinois, priority 2018, dated 2023)
# Entries after “also recorded” stand apart in the source; their conditions may differ.
# Key:
# CXCL1 = CXCL1 staining in thoracic ventral column white matter of EAE mice; format: in vivo, mouse; design: key to CNS Chemokines: CXCL1: ‘+’ indicate marker was significantly (p ≤ 0.05) increased in treatment group relative to vehicle; ‘−’ indicates marker was significantly (p ≤ 0.05) decreased in treatment group relative to vehicle; ○: ‘o’ indicate marker did not change relative to vehicle; details: vs vehicle; for CXCL1 staining intensity, thoracic ventral column: therapeutic treatment (postEAE)
# Description: (§1) Immunohistochemistry: Before histological staining, 40-μm free floating sections were thoroughly washed with PBS to remove residual sodium azide (Crawford et al., 2010). Sections were permeabilized with 0.3% Triton X-100 in ix PBS and 15% normal goat serum (NGS). Myelination, gliosis and immune markers were visualized by the following primary antibodies at a concentration of 1:500 unless otherwise noted: chicken anti-myelin basic protein (MBP; polyclonal, EMD Millipore, Darmstadt, Germany), chicken anti-glial fibrillary acidic protein (GFAP; EMD Millipore, Darmstadt), rat anti-cluster of differentiation 45 (CD45; clone 30-F11, BD Biosciences, San Diego, Calif.), mouse anti-ionized calcium-binding adapter molecule 1/allograft inflammatory factor-1 (Iba1/AIF1; clone 20A12.1, EMD Millipore, Darmstadt, Germany), goat anti-CXCL1 (R&D systems; Minneapolis, Minn.) at 1:250 and mouse anti-adenomatous polyposis coli (CC-1; clone CC-1, Genetex, Irvine, Calif.). Secondary staining was performed using polyclonal fluorophore-conjugated antibodies from ThermoFisher Scientific at a concentration of 1:500 unless otherwise specified: goat anti-chicken Alexa Fluor® 555 (AF555), goat anti-rabbit Alexa Fluor® 647 (AF647), donkey anti-chicken IgY Cy3 (EMD Millipore), goat anti-rat IgG AF647, goat anti-rabbit IgG Cy3 (EMD Millipore), goat anti-mouse IgG2b AF647 and rabbit anti-goat AF647. Nuclei were counter stained with 4′,6-Diamidino-2-phenylindole (DAPI, 2 ng/ml; Molecular Probes) for 10 minutes after incubation with secondary antibodies, and sections were mounted on glass slides, allowed to dry, and coverslipped with Fluoromount G mounting medium (Thermo Fisher Scientific) for imaging.
# (§2) Confocal Microscopy: Thoracic spinal cord dorsal and ventral column sections, as well as CC were imaged using an Olympus BX61 confocal microscope (Olympus America Inc., Center Valley, Pa.) using a 10× and 40× objective. Z-stack projections were compiled using SlideBook 6 software (Intelligent Imaging Innovations, Inc., Denver, Colo.). Immunostaining was quantified using unbiased stereology (Crawford et al., 2010). All images (RGB) were Confocal converted to grayscale, split, and separated by color channel using imageJ version 2.2.0-rc-46/1.50 g (NIH). To avoid experimenter bias, auto-adjustment of brightness and contrast, as well as threshold of staining signal, was carried out by ImageJ. MBP^+, GFAP^+, CD45^+, Iba1^+, CC1^+, and CXCL1^+, staining intensity was measured as percent area of positive immunoreactivity within the region of interest and intensity of signal determined by ImageJ.
# Under inflammatory conditions, such as those generated by MS, astrocytes undergo NF-κB-dependent upregulation of CXCL1, which is thought to recruit OPCs to the site of demyelinating injury (Omari et al., 2006; Xue et al., 2014). Thus, having observed that IndCl raised its production by peripheral leukocytes, CXCL1 expression in thoracic ventral column white matter was next evaluated.
# [1] = test system: corpus callosum mature OLs (CC1) and MBP; experiment: CC1 mature OLs and MBP immunoreactivity in callosal white matter tracts of EAE mice; format: in vivo, mouse; design: key to Myelination: OLs / Myelination: MBP: ‘+’ indicate marker was significantly (p ≤ 0.05) increased in treatment group relative to vehicle; ‘−’ indicates marker was significantly (p ≤ 0.05) decreased in treatment group relative to vehicle; ○: ‘o’ indicate marker did not change relative to vehicle; details: vs vehicle; for CC1+ mature OL numbers, corpus callosum / MBP+ staining, corpus callosum: therapeutic treatment (postEAE)
# Description: as §1, §2
# To test whether IndCl analogues promote similar gains in mature OL numbers and myelination, callosal white matter tracts were assessed for adenomatous polyposis coli (CC1) and MBP immunoreactivity, respectively. Additionally, ultrastructural analysis of the CC was performed by EM imaging to confirm the integrity of axon myelination.
# ERβ = ERβ (Homo sapiens, UniProt Q92731); experiment: Relative binding affinity (RBA) to estrogen receptor beta, radiometric measurement; details: for β/α Ratio: ratio of RBA ERβ to RBA ERα; for RBA ERβ: relative value to 100% for E2 by radiometric measurement
# [2] = Post (therapeutic, postEAE) treatment of EAE mice
# [3] = Pre (prophylactic, preEAE) E2 treatment of EAE mice
# Chain of ERβ (Q92731 whole entry, species assumed): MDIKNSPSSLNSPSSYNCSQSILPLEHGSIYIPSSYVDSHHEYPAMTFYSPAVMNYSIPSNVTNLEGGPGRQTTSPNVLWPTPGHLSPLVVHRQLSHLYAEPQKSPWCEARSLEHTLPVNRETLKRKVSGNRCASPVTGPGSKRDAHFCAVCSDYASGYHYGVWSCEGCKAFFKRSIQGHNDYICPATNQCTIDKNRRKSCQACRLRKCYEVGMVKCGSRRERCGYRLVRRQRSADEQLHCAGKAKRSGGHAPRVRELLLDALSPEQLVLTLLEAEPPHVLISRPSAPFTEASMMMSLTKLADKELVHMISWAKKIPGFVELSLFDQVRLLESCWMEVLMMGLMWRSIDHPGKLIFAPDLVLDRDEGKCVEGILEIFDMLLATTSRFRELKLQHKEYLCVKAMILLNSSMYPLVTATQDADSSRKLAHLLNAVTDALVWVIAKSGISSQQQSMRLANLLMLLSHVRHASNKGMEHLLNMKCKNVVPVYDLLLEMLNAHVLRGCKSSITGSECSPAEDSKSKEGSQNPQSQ
β/α Ratio (ERβ),RBA ERβ (ERβ),SMILES,CNS Chemokines: CXCL1 (CXCL1; [2]),CNS Chemokines: CXCL1 (CXCL1; [3]),"Myelination: MBP [1, 2]","Myelination: OLs [1, 2]","Myelination: MBP [1, 3]","Myelination: OLs [1, 3]","CXCL1 staining intensity, thoracic ventral column (CXCL1)","CC1+ mature OL numbers, corpus callosum [1]","MBP+ staining, corpus callosum [1]"
–,–,"C[C@]12CC[C@@H]3c4ccc(O)cc4CC[C@H]3[C@@H]1CC[C@@H]2O [E2, 170 estradiol]",+,○,○,+,+,+,–,–,–
107,32.1%,"Oc1ccc(-n2nc3ccc(O)cc3c2Cl)cc1 [IndCl, chloroindazole]",+,–,+,+,–,–,significant increase; also recorded: significantly increased,significant increase; also recorded: rescued the loss of CC1+ cells,increased MBP+ staining
27.1,10.9%,"Oc1ccc(-n2nc3ccc(O)cc3c2Cl)c(Cl)c1 [IndCl-o-Cl, 3-chloro-2-(2-chloro-4-hydroxyphenyl)-2H-indazol-5-ol]",+,–,+,+,–,–,significant increase; also recorded: significantly increased,significant increase,increased MBP+ staining
48.9,21.1%,"Cc1cc(O)ccc1-n1nc2ccc(O)cc2c1Cl [IndCl-o-Me, 3-chloro-2-(4-hydroxy-2-methylphenyl)-2H-indazol-5-ol]",+,–,+,+,–,–,significant increase; also recorded: significantly increased,significant increase,increased MBP+ staining
